The values below are quoted from earlier work in EP2949324A1, “Prevention and/or treatment of ischemia/reperfusion injury” (Consorci Institut Catala de Ciencies Cardiovasculars, priority 2014, dated 2015).

In the data set the target is Na^+/H^+ exchange system (Homo sapiens, UniProt P19634). Conditions: recent clinical trial; cited from earlier work.
Na^+/H^+ exchange system, sequence (P19634 whole entry): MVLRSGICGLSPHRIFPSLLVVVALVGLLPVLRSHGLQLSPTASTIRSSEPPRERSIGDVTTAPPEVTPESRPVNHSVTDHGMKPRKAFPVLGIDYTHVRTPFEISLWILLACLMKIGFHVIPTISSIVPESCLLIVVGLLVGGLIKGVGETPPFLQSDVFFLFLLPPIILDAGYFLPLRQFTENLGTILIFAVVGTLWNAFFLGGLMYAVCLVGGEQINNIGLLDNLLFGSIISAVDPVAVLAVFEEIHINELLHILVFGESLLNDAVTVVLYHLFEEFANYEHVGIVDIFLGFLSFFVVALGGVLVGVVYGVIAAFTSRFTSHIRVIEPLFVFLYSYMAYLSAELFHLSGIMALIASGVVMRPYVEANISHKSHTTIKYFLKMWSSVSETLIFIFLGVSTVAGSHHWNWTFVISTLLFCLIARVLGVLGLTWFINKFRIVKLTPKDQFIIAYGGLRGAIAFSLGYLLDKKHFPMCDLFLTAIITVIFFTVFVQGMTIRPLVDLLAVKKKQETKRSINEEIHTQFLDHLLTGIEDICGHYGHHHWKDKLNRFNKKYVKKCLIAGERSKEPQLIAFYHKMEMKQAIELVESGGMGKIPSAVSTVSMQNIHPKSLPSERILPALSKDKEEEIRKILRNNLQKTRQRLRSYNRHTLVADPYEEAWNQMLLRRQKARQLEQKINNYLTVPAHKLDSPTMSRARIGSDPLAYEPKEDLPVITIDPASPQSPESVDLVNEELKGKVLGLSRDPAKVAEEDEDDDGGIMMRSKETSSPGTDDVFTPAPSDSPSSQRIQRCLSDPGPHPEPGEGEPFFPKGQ

As to `CC(C)c1ccc(C(=O)NC(=N)N)cc1S(C)(=O)=O` [Cariporide], the “reperfusion injury (improved left ventricular (LV) dysfunction)” value is listed as “attenuation of reperfusion injury”.
